Test results as given in US7550510B2, “Solid phase synthesis of arylretinamides” (Wisconsin Alumni Research Foundation, priority 2001, dated 2009).

Experiments:
MCF-7 cells [1] = assay: Induction of apoptosis in MCF-7 cells, TUNEL assay; format: cell-based; conditions: MCF-7 human breast cancer cell line, FIG. 4
Source text: When DNA strands are cleaved or nicked by nucleases, a large number of 3′-hydroxyl ends are exposed. In the TUNEL assay (terminal deoxynucleotidyl transferase dUTP nick end labeling), these ends are labeled with UTP using mammalian terminal deoxynucleotidyl transferase (TdT), which covalently adds labeled nucleotides to the 3′-hydroxyl ends of these DNA fragments in a template-independent fashion. The UTP is then detected using specific probes (e.g., you can incorporate BrdUTP and then use a fluorescent anti-BrdU antibody). The assay can be used on cells in situ or the cells can be analyzed by flow cytometry.
The ability of arylretinamides 1, 7, 10, 11, 18, 19, 27, 32, 33, 41, 42, and 44 to induce apoptosis in MCF-7 cells was determined using a TUNEL assay as described in Engeland, M V; Nieland, L J W; Ramackers, F C S; Schutte, B; Reutelingsperger, CPM Cytometry 1998, 31, 1, which is specifically incorporated by reference.

MCF-7 cells [2] = assay: Inhibition of growth of cultured MCF-7 cells (cell number 48 h after a single dose); format: cell-based, human; conditions: activity vs. 4-HPR standard
Procedure: MCF-7 cells were maintained in DMEM supplemented as recommended by ATCC. Cells were plated (10,000/well) and dosed 24 h later dosed with the arylretinamide.

[3] = all at 10^−5 M, 48 hours after a single dose

Row | SMILES | melting point [°C] | growth inhibition (MCF-7 cells [2]; [3]) | further results
1 | CC1=C(/C=C/C(C)=C/C=C/C(C)=C/C(=O)Nc2ccc(O)cc2C)C(C)(C)CCC1 [Compound 1, N-(2′-methyl-4′-hydroxyphenyl)retinamide] | 141 to 145 | − | inducing apoptosis of cells (MCF-7 cells [1]): effective at inducing apopotosis
2 | CC1=C(/C=C/C(C)=C/C=C/C(C)=C/C(=O)Nc2cc(C)c(O)cc2C)C(C)(C)CCC1 [Compound 2, N-(4′-hydroxy-2′,5′-dimethylphenyl)retinamide] |  | − | 
3 | CC1=C(/C=C/C(C)=C/C=C/C(C)=C/C(=O)Nc2ccc(C)cc2O)C(C)(C)CCC1 [Compound 3, N-(2′-hydroxy-4′-methylphenyl)retinamide] | 146 to 147.5 | − | 
4 | CC1=C(/C=C/C(C)=C/C=C/C(C)=C/C(=O)Nc2cc(C)ccc2O)C(C)(C)CCC1 [Compound 4, N-(2′-hydroxy-5′-methylphenyl)retinamide] | 98 to 100 | − | 
5 | CC1=C(/C=C/C(C)=C/C=C/C(C)=C/C(=O)Nc2cc(C(C)(C)C)ccc2O)C(C)(C)CCC1 [Compound 5, N-(2′-hydroxy-5′-tert-butylphenyl)retinamide] | 144 to 146.5 | − | 
6 | CC1=C(/C=C/C(C)=C/C=C/C(C)=C/C(=O)Nc2c(C)cccc2O)C(C)(C)CCC1 [Compound 6, N-(2′-hydroxy-6′-methylphenyl)retinamide] |  | − | 
7 | CC1=C(/C=C/C(C)=C/C=C/C(C)=C/C(=O)Nc2ccc(C)c(O)c2)C(C)(C)CCC1 [Compound 7, N-(3′-hydroxy-4′-methylphenyl)retinamide] | 172.5 to 175 | + (+ = <50% the activity of standard) | inducing apoptosis of cells (MCF-7 cells [1]): effective at inducing apopotosis
8 | CC1=C(/C=C/C(C)=C/C=C/C(C)=C/C(=O)Nc2cccc(O)c2C)C(C)(C)CCC1 [Compound 8, N-(3′-hydroxy-2′-methylphenyl)retinamide] | 176 to 176.5 | − | 
9 | COc1ccc(NC(=O)/C=C(C)/C=C/C=C(C)/C=C/C2=C(C)CCCC2(C)C)cc1O [Compound 9, N-(3′-hydroxy-4′-methoxyphenyl)retinamide] | 119 to 124 | − | 
10 | CC1=C(/C=C/C(C)=C/C=C/C(C)=C/C(=O)Nc2ccc(O)cc2Cl)C(C)(C)CCC1 [Compound 10, N-(2′-chloro-4′-hydroxyphenyl)retinamide] | 131.5 to 132.5 | − | 
11 | CC1=C(/C=C/C(C)=C/C=C/C(C)=C/C(=O)Nc2ccc(O)c(Cl)c2)C(C)(C)CCC1 [Compound 11, N-(3′-chloro-4′-hydroxyphenyl)retinamide] | 168 to 169 | + (+ = <50% the activity of standard) | inducing apoptosis of cells (MCF-7 cells [1]): effective at inducing apopotosis
12 | CC1=C(/C=C/C(C)=C/C=C/C(C)=C/C(=O)Nc2cc(Cl)ccc2O)C(C)(C)CCC1 [Compound 12, N-(5′-chloro-2′-hydroxyphenyl)retinamide] | 115 to 118 | − | 
13 | CC1=C(/C=C/C(C)=C/C=C/C(C)=C/C(=O)Nc2cc(Cl)c(O)c(Cl)c2)C(C)(C)CCC1 [Compound 13, N-(3′,5′-dichloro-4′-hydroxyphenyl)retinamide] | 139 to 140 | − | 
14 | CC1=C(/C=C/C(C)=C/C=C/C(C)=C/C(=O)Nc2cc(Br)c(O)c(Br)c2)C(C)(C)CCC1 [Compound 14, N-(3′,5′-dibromo-4′-hydroxyphenyl)retinamide] |  | − | 
15 | CC1=C(/C=C/C(C)=C/C=C/C(C)=C/C(=O)Nc2cc(Cl)c(C)c(Cl)c2O)C(C)(C)CCC1 [Compound 15, N-(3′,5′-dichloro-2′-hydroxy-4′-methylphenyl)retinamide] | 140 to 142 | − | 
16 | CC1=C(/C=C/C(C)=C/C=C/C(C)=C/C(=O)Nc2ccc(O)cc2[N+](=O)[O-])C(C)(C)CCC1 [Compound 16, N-(4′-hydroxy-2′-nitrophenyl)retinamide] | 112 to 117 | − | 
17 | CC1=C(/C=C/C(C)=C/C=C/C(C)=C/C(=O)Nc2ccc(O)c([N+](=O)[O-])c2)C(C)(C)CCC1 [Compound 17, N-(4′-hydroxy-3′-nitrophenyl)retinamide] | 157 to 159.5 | − | 

Row | SMILES | melting point [°C] | growth inhibition (MCF-7 cells [2]; [3]) | further results
18 | CC1=C(/C=C/C(C)=C/C=C/C(C)=C/C(=O)Nc2ccc([N+](=O)[O-])cc2O)C(C)(C)CCC1 [Compound 18, N-(2′-hydroxy-4′-nitrophenyl)retinamide] | 152 to 153.5 | ++ (++ = >50% the activity of standard) | inducing apoptosis of cells (MCF-7 cells [1]): effective at inducing apopotosis
19 | CC1=C(/C=C/C(C)=C/C=C/C(C)=C/C(=O)Nc2cc([N+](=O)[O-])ccc2O)C(C)(C)CCC1 [Compound 19, N-(2′-hydroxy-5′-nitrophenyl)retinamide] | 151.5 to 153 | ++ (++ = >50% the activity of standard) | 
20 | COC(=O)c1cccc(NC(=O)/C=C(C)/C=C/C=C(C)/C=C/C2=C(C)CCCC2(C)C)c1O [Compound 20, N-(2′-hydroxy-3′-carboxymethylphenyl)retinamide] |  | − | 
21 | CC1=C(/C=C/C(C)=C/C=C/C(C)=C/C(=O)Nc2cccc(C(=O)O)c2O)C(C)(C)CCC1 [Compound 21, N-(2′-hydroxy-3′-carboxyphenyl)retinamide] |  | − | 
22 | CC1=C(/C=C/C(C)=C/C=C/C(C)=C/C(=O)Nc2ccc(C(=O)O)cc2O)C(C)(C)CCC1 [Compound 22, N-(2′-hydroxy-4′-carboxyphenyl)retinamide] |  | − | 
23 | CC1=C(/C=C/C(C)=C/C=C/C(C)=C/C(=O)Nc2c(O)cccc2C(=O)O)C(C)(C)CCC1 [Compound 24, N-(2′-hydroxy-6′-carboxyphenyl)retinamide] |  |  | growth inhibition (MCF-7 cells [2]; compound at 3.9 × 10^−6 M): −
24 | CC1=C(/C=C/C(C)=C/C=C/C(C)=C/C(=O)Nc2ccc(C(=O)O)c(O)c2)C(C)(C)CCC1 [Compound 26, N-(3′-hydroxy-4′-carboxyphenyl)retinamide] |  | − | 
25 | COC(=O)c1cc(NC(=O)/C=C(C)/C=C/C=C(C)/C=C/C2=C(C)CCCC2(C)C)ccc1O [Compound 27, N-(4′-hydroxy-3′-carboxymethylphenyl)retinamide] |  | + (+ = <50% the activity of standard) | 
26 | CC1=C(/C=C/C(C)=C/C=C/C(C)=C/C(=O)Nc2ccc(O)c(C(=O)O)c2)C(C)(C)CCC1 [Compound 28, N-(4′-hydroxy-3′-carboxyphenyl)retinamide] |  | − | 
27 | COC(=O)c1ccc(O)c(NC(=O)/C=C(C)/C=C/C=C(C)/C=C/C2=C(C)CCCC2(C)C)c1 [Compound 29, N-(2′-hydroxy-5′-carboxymethylphenyl)retinamide] |  | − | 
28 | CCS(=O)(=O)c1ccc(NC(=O)/C=C(C)/C=C/C=C(C)/C=C/C2=C(C)CCCC2(C)C)c(O)c1 [Compound 30, N-(4′-ethylsulfonyl-2′-hydroxyphenyl)retinamide] | 145 to 147 | − | 
29 | CC1=C(/C=C/C(C)=C/C=C/C(C)=C/C(=O)Nc2ccccc2CO)C(C)(C)CCC1 [Compound 31, N-(2′-hydroxymethylphenyl)retinamide] | 72 to 74 |  | 
30 | CC1=C(/C=C/C(C)=C/C=C/C(C)=C/C(=O)Nc2cccc(CO)c2)C(C)(C)CCC1 [Compound 32, N-(3′ hydroxymethylphenyl)retinamide] | 118 to 120.5 | + (+ = <50% the activity of standard) | inducing apoptosis of cells (MCF-7 cells [1]): perhaps, 32 are effective at inducing apopotosis
31 | CC1=C(/C=C/C(C)=C/C=C/C(C)=C/C(=O)Nc2ccc(N)cc2)C(C)(C)CCC1 [Compound 33, N-(4′-aminophenyl)retinamide] |  | + (+ = <50% the activity of standard) | 
32 | CC1=C(/C=C/C(C)=C/C=C/C(C)=C/C(=O)Nc2ccc(O)cc2)C(C)(C)CCC1 [Compound 41, N-(4′-hydroxyphenyl)retinamide, reference compound] |  | ++ (++ = >50% the activity of standard) | 
33 | CC(C=CC1=C(C)CCCC1(C)C)=CC=CC(C)=CC(=O)Nc1ccccc1C(=O)O [Compound 44, N-(2′-carboxyphenyl)retinamide, reference compound] |  | + (+ = <50% the activity of standard) | 
34 | CCOc1ccc(NC(=O)/C=C(C)/C=C/C=C(C)/C=C/C2=C(C)CCCC2(C)C)cc1 [Compound 45, N-(4′-ethoxyphenyl)retinamide, reference compound] |  |  | growth inhibition (MCF-7 cells [2]; compound at 7.4 × 10^−6 M): −
